Series [1] deals with HL-60 cells (human promyelocytic leukemia).
Procedure: (§1) Cells were purchased from the American Type Culture Collection (ATCC, Manassas, VA, USA). Human lung adenocarcinoma A549 cells were maintained in Dulbecco's Modified Eagle Medium (DMEM), while mouse fibroblast NIH/3T3 and human promyelocytic leukemia HL-60 cells were maintained in Roswell Park Memorial Institute 1640 medium (RPMI-1640) containing 10% FCS. Media were supplemented with 2 mM GlutaMAX, 100 U/mL penicillin, and 100 µg/mL streptomycin (Life Technologies, Carlsbad, California, USA). Cell cultures were maintained at 37 °C in a humidified incubator in an atmosphere of 5% CO2 (Sanyo, Japan).
(§2) Cytotoxicity of the synthesized molecules was determined on A549, NIH/3T3 and HL-60 cells using the fluorescent Resazurin assay as described previously [46].
(§3) Briefly, cells (A549 and NIH/3T3: 6000, HL-60: 120.000 cells/well) were seeded into 96-well plates (Corning Life Sciences) in media and incubated overnight. Test compounds were dissolved in three-fold amounts of dimethyl sulfoxide (DMSO). Cells were treated with an increasing concentration of test compounds (1–30 µM). […] Cell viability was determined after 72 h incubation. Resazurin reagent (Sigma-Aldrich) was added at a final concentration of 25 µg/mL. After a 2 h incubation at 37 °C in 5% CO2, fluorescence (530 nm excitation/580 nm emission) was recorded on a multimode microplate reader (Cytofluor4000, PerSeptive Biosytems). Viability was calculated with relation to untreated control cells and blank wells containing media without cells. […] A Student’s t test was performed for individual test compound concentrations with relation to untreated control cell viability values.
Series [2] shares this test system. Description: In vitro cytotoxicity, fluorescent Resazurin assay. Conditions: Homo sapiens, HL-60, 72 h, read-out: IC50 for HL60 (positive control), 72 h incubation, value in nM. (Resazurin is reduced to fluorescent resorufin, in cell work by metabolically active cells.)
Procedure: as §1, §2, §3

The IC50 is the point on the concentration scale where inhibition reaches its midpoint. For `CC(C)C[C@H](NC(=O)[C@H](Cc1ccccc1)NC(=O)c1cnccn1)B(O)O` [Bortezomib, reference compound], in series [1], the “In Vitro Cytotoxicity (IC50, µM) HL-60” value is reported as 7.42 × 10^−3 2.60 × 10^−3 µM. Moreover, the half-maximal inhibitory concentration (IC50) in series [2] stood at 7.42 ± 2.6 nM.

These data come from publication PMC7321403, “Synthesis and In Vitro Cytotoxicity and Antibacterial Activity of Novel 1,2,3-Triazol-5-yl-Phosphonates” (Molecules, 2020).
